Like-named read-outs stand apart in the source and are kept apart here. Where a SMILES comes first, the peptide text is derived from it. Bridges are numbered along the chain shown (N, C = ends). [ ]: non-standard residue; d: D form. The star is where a group is joined. NMePhe(4-NMe2) = CN[C@@H](Cc1ccc(N(C)C)cc1)C(=O)O; Pip(4-oxo) = O=C1CCN[C@H](C(=O)O)C1; Picolinoyl(3-OH) = O=C(c1ncccc1O)*; Phg = N[C@H](C(=O)O)c1ccccc1; dAbu = CC[C@@H](N)C(=O)O
Assays:
[1] = system: HLAR, High level Aminoglycoside Resistance in Enterococci; assay: Binding of fluorescently labelled antibiotic, resistant vs non-resistant form (Table 3); type: cell-based; settings: resistant relative to non-resistant form
Protocol: (§1) Table 3: Antibiotic resistance mechanism in clinically relevant micro-organisms and alteration in the amount of antibiotics in resistant micro-organisms. The alteration of the amount of detectable labelled antibiotics in micro-organisms in its resistant form is determined relative to its non-resistant form. The amount is expressed in % change of fluorescence (decrease and increase, respectively) of an antibiotic which carries a fluorescent label.

23S rRNA = settings: cited from earlier work
[2] = system: VISA, Vancomycin intermediary SA; assay: Binding of fluorescently labelled antibiotic, resistant vs non-resistant form (Table 3); type: cell-based, Staphylococcus aureus; settings: increased binding; fluorescent-labelled antibiotic, resistant relative to non-resistant form
Protocol: as §1

[3] = system: VRS, Vancomycin resistant Staph; assay: as above; type: cell-based, Staphylococci (CNS); settings: increased binding; fluorescent-labelled antibiotic, resistant relative to non-resistant form
Protocol: as §1

[4] = system: VRE, Vancomycin resistant Enterococci; assay: as above; type: cell-based; settings: resistant relative to non-resistant form
Protocol: as §1

[5] = system: VRE, Vancomycin resistant Enterococci; settings: mechanism column; reduction of affinity in resistant form; cited from earlier work
[6] = system: ESBL, Extended Spectrum β-Lactamase Acinetobacter; assay: Binding of fluorescently labelled antibiotic, resistant vs non-resistant form (Table 3); type: cell-based; settings: increase of binding; fluorescent-labelled antibiotic, resistant relative to non-resistant form
Protocol: as §1

[7] = system: ESBL, Extended Spectrum β-Lactamase BCC; assay: as above; type: cell-based; settings: increase of binding; fluorescent-labelled antibiotic, resistant relative to non-resistant form
Protocol: as §1

[8] = system: ESBL, Extended Spectrum β-Lactamase Enterobacteriaceae; assay: as above; type: cell-based; settings: increase of binding; fluorescent-labelled antibiotic, resistant relative to non-resistant form
Protocol: as §1

[9] = system: ESBL, Extended Spectrum β-Lactamase Pseudomonas spp.; assay: as above; type: cell-based; settings: increase of binding; fluorescent-labelled antibiotic, resistant relative to non-resistant form
Protocol: as §1

[10] = system: ESBL, Extended Spectrum β-Lactamase Stenotrophomonas maltophilla; assay: as above; type: cell-based; settings: increase of binding; fluorescent-labelled antibiotic, resistant relative to non-resistant form
Protocol: as §1

[11] = system: CA-MRSA, Community acquired MRSA; type: cell-based, Staphylococcus aureus; settings: resistant relative to non-resistant form
Protocol: as §1

[12] = system: BORSA, Border line oxacillin resistant SA; assay: Binding of fluorescently labelled antibiotic, resistant vs non-resistant form (Table 3); type: cell-based, Staphylococcus aureus; settings: resistant relative to non-resistant form
Protocol: as §1

[13] = system: MRSA, Methicillin Resistant SA; assay: as above; type: cell-based, Staphylococcus aureus; settings: resistant relative to non-resistant form
Protocol: as §1

[14] = system: ORSA, Oxacillin resistant SA; assay: as above; type: cell-based, Staphylococcus aureus; settings: resistant relative to non-resistant form
Protocol: as §1

[15] = reduction of binding, fluorescent-labelled antibiotic

In the case of [H]/N=C(/N)N[C@H]1[C@H](O)[C@@H](O)[C@H](O[C@@H]2O[C@@H](C)[C@](O)(C=O)[C@H]2O[C@@H]2O[C@@H](CO)[C@H](O)[C@@H](O)[C@@H]2NC)[C@@H](N/C(N)=N\[H])[C@@H]1O [Streptomycin], the “% Change in Fluorescenc” value [1, 15] is given as over 80% reduction, the “Effect of resistance on fluorescence” value [1] is given as “Reduction in Streptomycin binding” and the Phenotype (23S rRNA; 23S rRNA position 2661, "G to C", E. coli, when expressed with Smr, hyperaccurate S12 mutation) is given as “streptomycin dependent”.

In the case of CN[C@H](CC(C)C)C(=O)N[C@H]1C(=O)N[C@@H](CC(N)=O)C(=O)N[C@H]2C(=O)N[C@H]3C(=O)N[C@H](C(=O)N[C@H](C(=O)O)c4cc(O)cc(O)c4-c4cc3ccc4O)[C@H](O)c3ccc(c(Cl)c3)Oc3cc2cc(c3O[C@@H]2O[C@H](CO)[C@@H](O)[C@H](O)[C@H]2O[C@H]2C[C@](C)(N)[C@H](O)[C@H](C)O2)Oc2ccc(cc2Cl)[C@H]1O [Vancomycin], the “% Change in Fluorescenc” value [2] is reported as 20-50%, the “% Change in Fluorescenc” value [3] is reported as over 50% and the “% Change in Fluorescenc” value [4, 15] is reported as over 80%. The “Effect of resistance on fluorescence” value [4] was “Reduction of vancomycin” and the “Reduced affinity to Van” value [5] was “Reduced affinity to Van by 3 orders of magnitude”.

For O=C(O)[C@H]1/C(=C/CO)O[C@@H]2CC(=O)N21 [clavulanic acid], the “% Change in Fluorescenc” value [6] was over 80%, the “% Change in Fluorescenc” value [7] was over 80% and the “% Change in Fluorescenc” value [8] was over 80%. For the same compound, the “% Change in Fluorescenc” value [9] was over 80% and the “% Change in Fluorescenc” value [10] was over 80%.

For CC[C@H]1NC(=O)[C@@H](NC(=O)c2ncccc2O)[C@@H](C)OC(=O)[C@H](c2ccccc2)NC(=O)[C@@H]2CC(=O)CCN2C(=O)[C@H](Cc2ccc(N(C)C)cc2)N(C)C(=O)[C@@H]2CCCN2C1=O [pristinamycin 1A] ({Picolinoyl(3-OH)}-T[dAbu]P[NMePhe(4-NMe2)][Pip(4-oxo)][Phg]; ester 1-C), the “Phenotype (binding on peptidyl transferase loop)” value (23S rRNA; 23S rRNA position 2500, U2500A/C2501A, E. coli) is listed as “Inhibits binding of 1A” and the “Phenotype (binding on peptidyl transferase loop)” value (23S rRNA; 23S rRNA position 2602, A2602C/C2501A, E. coli) is listed as “Inhibits binding of 1A”.

For CSC[S@+]([O-])C[C@H](CO)NC(=O)/C=C/c1c(C)[nH]c(=O)[nH]c1=O [sparsomycin], the “Phenotype (resistance)” value (23S rRNA; 23S rRNA position 2452 "C to U", Halobacterium halobium (Tan et al. 1996)) is given as “Low level sparsomycin”.

For C=C(NC(=O)C(=C)NC(=O)c1csc(C2=N[C@@H]3c4csc(n4)[C@H]4NC(=O)c5csc(n5)[C@H]([C@](C)(O)[C@@H](C)O)NC(=O)[C@H]5CSC(=N5)/C(=C/C)NC(=O)[C@H]([C@@H](C)O)NC(=O)c5csc(n5)[C@]3(CC2)NC(=O)[C@H](C)NC(=O)C(=C)NC(=O)[C@H](C)NC(=O)[C@H]([C@@H](C)CC)N[C@@H]2C=Cc3c([C@H](C)O)cc(nc3[C@H]2O)C(=O)O[C@@H]4C)n1)C(N)=O [thiostrepton], the “Phenotype: binding of thiostrepton” value (23S rRNA; 23S rRNA 1056 G to C, E. coli, RNA fragments) is listed as “weakened in RNA”, the “Phenotype: drug binding affinity” value (23S rRNA; 23S rRNA 1067 A to C, E. coli) is listed as “affinity is reduced similarly” and the “Phenotype: level of resistance” value (23S rRNA; 23S rRNA 1067 A to C, E. coli) is listed as “A to C or U confers high”. The “Phenotype: drug binding affinity” value (23S rRNA; 23S rRNA 1067 A to G, E. coli) was “affinity is reduced similarly”, the “Phenotype: level of resistance” value (23S rRNA; 23S rRNA 1067 A to G, E. coli) was “confers intermediate level” and the “Phenotype: drug binding affinity” value (23S rRNA; 23S rRNA 1067 A to U, E. coli) was “affinity is reduced similarly”. The “Phenotype: level of resistance” value (23S rRNA; 23S rRNA 1067 A to U, E. coli) was “A to C or U confers high” and the “Phenotype: thiostrepton resistance in poly (U) translation” value (23S rRNA; 23S rRNA 1067 A to U, E. coli, mutant constituted 30% of the total 23S rRNA pool in the ribosomes) was “ribosomes; exhibited 30%”.

With COc1cc(Cc2cnc(N)nc2N)cc(OC)c1OC [trimethoprim] the “Effect of resistance on fluorescence” value [11] was “binding. Maintaims binding”.

For Penicillin [listing 1 of 2 here], the “% Change in Fluorescenc” value [11, 15] was “> to ≈80%”, the “% Change in Fluorescenc” value [12, 15] was “> to ≈80%” and the “% Change in Fluorescenc” value [13, 15] was “> to ≈80%”. For the same compound, the “Effect of resistance on fluorescence” value [13] was “Reduction of Penicillin binding” and the “% Change in Fluorescenc” value [14, 15] was “> to ≈80%”.

In the case of Penicillin [listing 2 of 2 here], the “Effect of resistance on fluorescence” value [11] is reported as “Reduction of Penecillin”, the “Effect of resistance on fluorescence” value [12] is reported as “Reduction of Penecillin” and the “Effect of resistance on fluorescence” value [14] is reported as “Reduction of Penecillin”.

In the case of spiramycin, the Phenotype (23S rRNA; 23S rRNA position 2611, "C to G", Chlamydomonas reinhardtii (Gauthier et al. 1988)) is given as “spiramycin resistance” and the Phenotype (23S rRNA; 23S rRNA position 2611, "C to G", Yeast mitochondria (Sor and Fukahara 1984)) is given as “spiramycin resistance”.
